According to patent US20260078108A1, “SOLID FORMS OF A ROCK INHIBITOR” (REDX PHARMA PLC, priority 2022, published 2026):

Key:
μ (MOP) (h) = target: T1, μ (MOP) (h) (Homo sapiens, UniProt P35372); assay: CEREP panel mu (MOP) (h) antagonist effect, cAMP HTRF; type: cell-based; details: HCl salt tested; CHO cells, DAMGO (10 nM)
T1 construct: expressed in transfected cells; host or cells: CHO cells
Description: (§1) The use of in vitro pharmacological screening against a diverse range of targets (receptors, ion channels, enzymes and transporters) is used to identify undesirable off-target activity that may cause adverse drug reactions in humans. Screening panels (e.g. SafetyScreen44™ Panel, Eurofins) comprise a selection of off-targets linked with known issues in humans that could hinder or halt the development of drug candidates or market withdrawal if discovered after a drug is approved. The HCl salts of the S enantiomer and the R enantiomer of compound A were tested against a panel of such targets.
(§2) The tests were carried out according to the methods described in the following tables and indicated literature references.

M2 (h) = target: T2, M2 (h) (Homo sapiens, UniProt P08172); assay: CEREP panel M2 (h) agonist effect, cAMP HTRF; type: cell-based; details: HCl salt tested, CHO cells
T2 construct: expressed in transfected cells; host or cells: CHO cells
T2 sequence (P08172 1-466): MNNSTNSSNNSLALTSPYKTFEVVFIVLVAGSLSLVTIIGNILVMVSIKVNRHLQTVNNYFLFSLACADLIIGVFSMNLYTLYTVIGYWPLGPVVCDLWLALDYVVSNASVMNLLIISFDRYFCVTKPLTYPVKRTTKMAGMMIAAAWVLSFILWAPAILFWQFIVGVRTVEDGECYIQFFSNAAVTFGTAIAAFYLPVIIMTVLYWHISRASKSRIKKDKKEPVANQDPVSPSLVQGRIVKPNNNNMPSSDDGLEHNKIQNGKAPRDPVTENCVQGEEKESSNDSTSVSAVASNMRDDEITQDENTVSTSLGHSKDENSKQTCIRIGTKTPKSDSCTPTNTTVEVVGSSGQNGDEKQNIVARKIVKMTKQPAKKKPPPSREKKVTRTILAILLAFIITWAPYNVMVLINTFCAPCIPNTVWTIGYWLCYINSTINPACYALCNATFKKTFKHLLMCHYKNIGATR
Description: as §1, §2

LATS2 = target: T3, LATS2 (Homo sapiens, UniProt Q9NRM7); assay: Kinase panel 33P-ATP filter assay, LATS2; type: biochemical; details: HCl salt tested; ATP Conc. 30 μM (Km); read-out: Compound IC50 (nM) LATS2
T3 sequence (Q9NRM7 1-1088): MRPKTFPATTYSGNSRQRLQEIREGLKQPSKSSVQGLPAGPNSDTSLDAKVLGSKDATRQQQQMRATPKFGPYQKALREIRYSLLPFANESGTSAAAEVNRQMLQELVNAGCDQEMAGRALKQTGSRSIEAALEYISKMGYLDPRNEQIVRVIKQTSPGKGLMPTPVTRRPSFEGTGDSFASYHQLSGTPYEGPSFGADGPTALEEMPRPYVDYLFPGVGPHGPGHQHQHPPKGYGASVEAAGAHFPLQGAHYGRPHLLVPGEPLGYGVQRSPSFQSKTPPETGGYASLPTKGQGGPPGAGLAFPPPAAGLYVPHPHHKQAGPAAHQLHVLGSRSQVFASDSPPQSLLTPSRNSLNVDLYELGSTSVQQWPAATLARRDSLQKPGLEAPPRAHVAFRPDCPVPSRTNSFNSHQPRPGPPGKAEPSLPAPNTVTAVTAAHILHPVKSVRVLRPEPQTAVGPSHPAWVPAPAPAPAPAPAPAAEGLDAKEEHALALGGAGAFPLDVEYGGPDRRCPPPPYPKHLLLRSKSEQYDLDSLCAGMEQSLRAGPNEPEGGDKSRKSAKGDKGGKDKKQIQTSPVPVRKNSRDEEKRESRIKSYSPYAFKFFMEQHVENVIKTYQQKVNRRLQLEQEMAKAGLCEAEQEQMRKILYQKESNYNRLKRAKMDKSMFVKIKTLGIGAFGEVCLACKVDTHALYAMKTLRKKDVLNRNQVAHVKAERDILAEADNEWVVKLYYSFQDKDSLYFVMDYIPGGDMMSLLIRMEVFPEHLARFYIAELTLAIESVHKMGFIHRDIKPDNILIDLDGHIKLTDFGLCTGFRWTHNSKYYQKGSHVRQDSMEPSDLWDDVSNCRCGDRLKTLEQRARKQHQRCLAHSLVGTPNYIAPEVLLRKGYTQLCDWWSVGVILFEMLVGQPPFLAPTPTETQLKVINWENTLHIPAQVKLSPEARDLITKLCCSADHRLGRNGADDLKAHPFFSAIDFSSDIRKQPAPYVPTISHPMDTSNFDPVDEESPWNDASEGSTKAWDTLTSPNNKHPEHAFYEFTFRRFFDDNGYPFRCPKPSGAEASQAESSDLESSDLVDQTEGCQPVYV
Protocol: The HCl salts of S enantiomer and the R enantiomer of compound A were tested against a panel of kinases.
Compounds were received as powder and resuspended to 10 mM DMSO stock. Compounds were tested in 10-dose IC50 mode with a 3-fold serial dilution starting at 10 μM. Control compound, staurosporine, was tested in 10-dose IC50 mode with 4-fold serial dilution starting at 20 μM.
Reaction Conditions: Buffer Conditions: 20 mM HEPES ((4-(2-hydroxyethyl)-1-piperazineethanesulfonic acid; pH 7.5), 10 mM MgCl2, 1 mM EGTA (Ethyleneglycol-bis(p-aminoethyl)-N,N,N′,N′-tetraacetic Acid), 0.01% Brij35, 0.02 mg/ml BSA (Bovine serum albumin), 0.1 mM Na3VO4, 2 mM DTT (Dithiothreitol), 1% DMSO. Reaction Procedure: 1. Prepare indicated substrate in freshly prepared reaction buffer. 2. Deliver required cofactors to the substrate solution above. 3. Deliver indicated kinase into the substrate solution and mix gently. 4. Deliver compounds in DMSO into the kinase reaction mixture utilizing acoustic technology (Echo550). 5. Deliver ^33P-ATP (specific activity 0.01 μCi/μl final) into the reaction mixture to initiate the reaction. 6. Incubate kinase reaction for 120 minutes at room temperature. 7. […] Data Analysis: Kinase activity data were expressed as the percent remaining kinase activity in test samples compared to vehicle (dimethyl sulfoxide) reactions. […]

CB2 (h) = target: T4, CB2 (h) (Homo sapiens, UniProt P34972); assay: CEREP panel CB2 (h) agonist effect, cAMP HTRF; type: cell-based; details: HCl salt tested, CHO cells
T4 construct: expressed in transfected cells; host or cells: CHO cells
Description: as §1, §2

CB1 (h) = target: T5, CB1 (h) (Homo sapiens, UniProt P21554); assay: CEREP panel CB1 (h) agonist effect, cAMP HTRF; type: cell-based; details: HCl salt tested, CHO cells
T5 construct: expressed in transfected cells; host or cells: CHO cells
Description: as §1, §2

T1 sequence (P35372 whole entry): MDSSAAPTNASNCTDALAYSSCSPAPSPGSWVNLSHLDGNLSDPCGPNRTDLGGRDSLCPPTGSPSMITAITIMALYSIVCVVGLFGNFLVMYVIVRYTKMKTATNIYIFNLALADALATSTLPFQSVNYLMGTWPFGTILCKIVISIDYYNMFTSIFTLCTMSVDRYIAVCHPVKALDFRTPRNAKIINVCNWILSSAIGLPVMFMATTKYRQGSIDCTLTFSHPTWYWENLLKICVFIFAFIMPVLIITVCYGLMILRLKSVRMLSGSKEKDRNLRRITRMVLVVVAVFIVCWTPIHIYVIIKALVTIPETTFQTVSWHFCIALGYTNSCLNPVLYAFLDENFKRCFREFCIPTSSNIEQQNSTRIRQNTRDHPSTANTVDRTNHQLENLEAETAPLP
T5 sequence (P21554 whole entry): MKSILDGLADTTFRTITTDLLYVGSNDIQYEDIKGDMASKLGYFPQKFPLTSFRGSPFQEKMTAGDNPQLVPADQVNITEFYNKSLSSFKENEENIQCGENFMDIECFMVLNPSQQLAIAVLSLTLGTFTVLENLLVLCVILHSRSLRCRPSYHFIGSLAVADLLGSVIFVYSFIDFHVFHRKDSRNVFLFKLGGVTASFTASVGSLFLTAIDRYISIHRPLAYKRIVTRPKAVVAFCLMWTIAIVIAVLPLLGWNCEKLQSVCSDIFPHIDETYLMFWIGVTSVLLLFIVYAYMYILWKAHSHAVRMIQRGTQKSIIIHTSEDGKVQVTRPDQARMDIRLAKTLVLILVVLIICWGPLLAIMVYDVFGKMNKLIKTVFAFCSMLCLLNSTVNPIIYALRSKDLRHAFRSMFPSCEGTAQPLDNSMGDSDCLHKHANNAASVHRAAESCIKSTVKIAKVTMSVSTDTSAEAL
T4 sequence (P34972 whole entry): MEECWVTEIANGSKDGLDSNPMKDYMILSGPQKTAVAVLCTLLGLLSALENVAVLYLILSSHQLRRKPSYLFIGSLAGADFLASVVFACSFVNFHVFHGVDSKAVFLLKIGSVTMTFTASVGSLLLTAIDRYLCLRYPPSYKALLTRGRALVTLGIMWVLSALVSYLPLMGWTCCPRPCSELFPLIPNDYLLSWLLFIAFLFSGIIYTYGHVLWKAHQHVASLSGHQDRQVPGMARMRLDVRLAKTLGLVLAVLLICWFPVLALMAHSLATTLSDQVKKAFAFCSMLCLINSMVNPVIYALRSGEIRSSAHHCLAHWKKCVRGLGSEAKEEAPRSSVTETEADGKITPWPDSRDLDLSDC

SMILES: NCc1ccc(C(=O)Nc2ccncc2F)cc1-c1cccc(C(=O)Nc2ccc(SC[C@@H]3CCOC3=O)cc2)c1 [R-enantiomer]
- mu (MOP) (h) (antagonist effect) (IC50) (μ (MOP) (h)): Inactive
- EC50 (M2 (h)): > 10000 nM
- IC50 (LATS2): 42.7 nM
- CB2 (h) (agonist effect) (EC50) (CB2 (h)): Inactive
- CB1 (h) (agonist effect) (EC50) (CB1 (h)): Inactive

SMILES: NCc1ccc(C(=O)Nc2ccncc2F)cc1-c1cccc(C(=O)Nc2ccc(SC[C@H]3CCOC3=O)cc2)c1 [S-enantiomer]
- mu (MOP) (h) (antagonist effect) (IC50) (μ (MOP) (h)): Inactive
- EC50 (M2 (h)): 93000 nM
- IC50 (LATS2): 33.3 nM
- CB2 (h) (agonist effect) (EC50) (CB2 (h)): Inactive
- CB1 (h) (agonist effect) (EC50) (CB1 (h)): Inactive
